Results as given in patent US11147272B2, “Pyridone compounds and agricultural and horticultural fungicides comprising the same as active ingredients” (MITSUI CHEMICALS AGRO, INC., priority 2017, dated 2021).

Assays:
Phytophthora infestans = experiment: whole plant or invertebrate; format: in vivo; conditions: Late blight on tomato; class of control value
Alternaia brassicicola = experiment: Test Example C: Alternaria sooty spot on cabbage; format: in vivo; conditions: Alternaria sooty spot on cabbage; class of control value
Excerpt: Seeds of a test plant (cabbage variety: Shikidori) were planted and cultivated until the cotyledons extended.
<Control Value> Control value=100{1−(n/3)}

[1] = system: Colletotrichum orbiculare; experiment: Test Example H: Anthracnose on cucumber; conditions: Anthracnose on cucumber (Sagami Hanjiro); 250 ppm spray, 2.5 ml/pot; assessed 6 to 10 days after inoculation
Magnaporthe grisea = experiment: whole plant or invertebrate; format: in vivo; conditions: Blast on rice; class of control value
[2] = system: Blumeria graminis f. sp. hordei; experiment: Test Example D: Powdery mildew on barley; conditions: Powdery mildew on barley; class of control value
Botrytis cinerea = experiment: Test Example B: Gray mold on tomato; conditions: Gray mold on tomato; class of control value
Protocol: Seeds of a test plant (tomato variety: Oogata Fukuju) were planted and cultivated until three to five first leaves (true leaves) appeared. In the test, the inventive compounds were dissolved into dimethyl sulfoxide-methanol mixture solution (volume ratio: 9/1), and the resultant solutions were diluted with well water to a concentration of 250 ppm to obtain the drug solutions. The drug solutions were sprayed to the test plant (2.5 ml/pot). After the drug solutions dried, a conidial suspension (4-8×10^5 conidia/ml) of Botrytis cinerea was inoculated to the plant by spraying. After the inoculation, the plant was kept in a mist chamber at room temperature of 20 to 23° C. for about 48 hours to promote the onset of disease. The degrees of disease development were investigated 2 to 3 days after the inoculation, and the effectiveness of the drug solutions was evaluated.
In Test Examples described above, the degrees of disease development were evaluated in increments of 0.05 from 0 (as no incidence of disease) to 3 (as the degree of disease development in an untreated plant group). Further, control values were calculated using the following equation based on the degree of disease development.
n=Degree of disease development in each treated group
In the table, H: more than 50% control value, L: 50% or less control value, and nt: not tested.

Plasmopara viticola = experiment: Test Example G: Downy mildew on vine; conditions: Downy mildew on vine (Neomuscat); 250 ppm spray, 2.5 ml/pot; assessed 7 to 10 days after inoculation
Puccinia recondita = experiment: Test Example E: Brown rust on wheat; format: in vivo; conditions: Brown rust on wheat; class of control value

SMILES | Test F control value class (Phytophthora infestans) | Test C control value class (Alternaia brassicicola) | Test H control value class [1] | Test A control value class (Magnaporthe grisea) | Test D control value class [2] | Test B control value class (Botrytis cinerea) | Test G control value class (Plasmopara viticola) | Test E control value class (Puccinia recondita)
CCn1c(-c2ccc(F)cc2)c(CC(C)C)cc(Br)c1=O [compound 148] | L (50% or less control value) | H (more than 50% control value) | H (more than 50% control value) | H (more than 50% control value) | H (more than 50% control value) | H (more than 50% control value) | H (more than 50% control value) | H (more than 50% control value)
CCn1c(-c2ccc(F)cc2)c(CC(C)C)cc(Cl)c1=O [compound 149] | L (50% or less control value) | H (more than 50% control value) | H (more than 50% control value) | H (more than 50% control value) | H (more than 50% control value) | H (more than 50% control value) | H (more than 50% control value) | H (more than 50% control value)
CCn1c(-c2c(F)cc(F)cc2F)c(C(C)(C)O)cc(Cl)c1=O [compound 150] | L (50% or less control value) | H (more than 50% control value) | H (more than 50% control value) | H (more than 50% control value) | H (more than 50% control value) | H (more than 50% control value) | H (more than 50% control value) | H (more than 50% control value)
CCN(Cc1cc(Cl)c(=O)n(CC)c1-c1c(F)cc(F)cc1F)OC [compound 151] | L (50% or less control value) | H (more than 50% control value) | H (more than 50% control value) | H (more than 50% control value) | H (more than 50% control value) | H (more than 50% control value) | H (more than 50% control value) | H (more than 50% control value)
CCN(Cc1cc(Cl)c(=O)n(CC)c1-c1c(F)cc(OC)cc1F)OC [compound 152] | L (50% or less control value) | H (more than 50% control value) | H (more than 50% control value) | H (more than 50% control value) | H (more than 50% control value) | H (more than 50% control value) | H (more than 50% control value) | H (more than 50% control value)
CCn1c(-c2c(F)cc(OC)cc2F)c(C(C)(O)CC(C)C)cc(Cl)c1=O (stereo not shown) [compound 153] | L (50% or less control value) | H (more than 50% control value) | H (more than 50% control value) | L (50% or less control value) | H (more than 50% control value) | H (more than 50% control value) | H (more than 50% control value) | H (more than 50% control value)
CCn1c(-c2c(F)cc(F)cc2F)c(C(C)(O)CC(C)C)cc(Cl)c1=O (stereo not shown) [compound 154] | L (50% or less control value) | H (more than 50% control value) | H (more than 50% control value) | H (more than 50% control value) | H (more than 50% control value) | H (more than 50% control value) | H (more than 50% control value) | H (more than 50% control value)
CC(C)Cc1cc(Cl)c(=O)n(C)c1-c1ccc(F)cc1 [compound 155] | L (50% or less control value) | H (more than 50% control value) | L (50% or less control value) | L (50% or less control value) | H (more than 50% control value) | H (more than 50% control value) | H (more than 50% control value) | H (more than 50% control value)
CC(C)Cc1cc(Br)c(=O)n(C)c1-c1ccc(F)cc1 [compound 156] | L (50% or less control value) | H (more than 50% control value) | L (50% or less control value) | H (more than 50% control value) | H (more than 50% control value) | H (more than 50% control value) | L (50% or less control value) | H (more than 50% control value)
CCn1c(-c2ccc(Cl)cc2F)c(CC(C)C)ccc1=O [compound 157] | L (50% or less control value) | H (more than 50% control value) | L (50% or less control value) | H (more than 50% control value) | H (more than 50% control value) | H (more than 50% control value) | H (more than 50% control value) | H (more than 50% control value)
CCn1c(-c2ccc(Cl)cc2F)c(CC(C)C)cc(Cl)c1=O [compound 158] | L (50% or less control value) | H (more than 50% control value) | H (more than 50% control value) | H (more than 50% control value) | H (more than 50% control value) | H (more than 50% control value) | H (more than 50% control value) | H (more than 50% control value)
CCn1c(-c2ccc(Cl)cc2F)c(CC(C)C)cc(Br)c1=O [compound 159] | L (50% or less control value) | H (more than 50% control value) | H (more than 50% control value) | H (more than 50% control value) | H (more than 50% control value) | H (more than 50% control value) | H (more than 50% control value) | H (more than 50% control value)
CCn1c(-c2c(F)cc(F)cc2F)c(C(=O)CC(C)C)cc(Cl)c1=O [compound 160] | L (50% or less control value) | H (more than 50% control value) | H (more than 50% control value) | L (50% or less control value) | H (more than 50% control value) | H (more than 50% control value) | H (more than 50% control value) | H (more than 50% control value)
CCOC(C)(C)c1cc(Cl)c(=O)n(CC)c1-c1c(F)cc(F)cc1F [compound 161] | L (50% or less control value) | H (more than 50% control value) | H (more than 50% control value) | H (more than 50% control value) | H (more than 50% control value) | H (more than 50% control value) | H (more than 50% control value) | H (more than 50% control value)
